Consider seven compounds from publication PMC11581978, “Paenilamicins are context-specific translocation inhibitors of protein synthesis” (Nature Chemical Biology, 2024).

The subject of assay [1] is Escherichia coli in vitro translation. Particulars: well-known translation inhibitors; read-out: IC50; cited from earlier work. The text has this: The accordance of structural features of paenilamicins with the translation inhibitor edeine (Extended Data Fig. 1c) led to the hypothesis that paenilamicins may also exert their antimicrobial activity by binding to the ribosome and inhibiting protein synthesis. […] The best understood context-specific translation inhibitors are those that target the large subunit, where their inhibitory action is influenced by the sequence of the nascent polypeptide chain being synthesized, for example, macrolides and ketolides[30]–[32] ...

Assay [2] has as its system ribosomes translating ErmBL mRNA. Briefly: Toeprinting on ErmBL mRNA templates (Figs. 4a and 5c). It is filed as biochemical, E. coli. Particulars: for ribosome stalling on wildtype ErmBL mRNA: mupirocin present, in duplicate. On the procedure: Toeprinting reactions for Figs. 4a and 5c were performed as described previously. Briefly, reactions were performed with 5 μl of PURExpress in vitro protein synthesis system. The reactions contained 0.1 pmol of the respective DNA template (Supplementary Table 2) and were supplemented with retapamulin, erythromycin, mupirocin or PamB2 as specified. The transcription–translation reactions were incubated 20 min at 37 °C. Subsequently, reverse transcription was performed for 10 min at 37 °C using AMV RT and the radiolabeled NV*1-primer. Reactions were stopped by the addition of 1 µl of 10 M NaOH and then neutralized with 0.8 µl of concentrated HCl. Subsequently, 200 µl of the stop buffer (0.3 M sodium acetate (pH 5.5), 5 mM EDTA and 0.5% SDS) was added and phenol extraction was performed. The obtained complementary DNA was precipitated in ethanol for subsequent gel electrophoresis.

The subject of assay [3] is EF-G-dependent translocation on the ribosome. Description: Translocation assay (toeprinting, MFKAFK template). It is filed as biochemical. Particulars: EF-G present; tRNAfMet in P-site, N-AcPhe-tRNAPhe in A-site; in duplicate. On the procedure: Translocation assays were performed as previously described[22] using the MFKAFK template[45] (Supplementary Table 2). Reactions were prepared by incubating tight-coupled ribosomes (0.7 µM) with mRNA (0.5 µM) and tRNAi^Met (1 µM) for 20 min at 37 °C in the Pure System Buffer (5 mM potassium phosphate (pH 7.3), 9 mM Mg(OAc)2, 95 mM potassium glutamate, 5 mM NH4Cl, 0.5 mM CaCl2, 1 mM spermidine, 8 mM putrescine and 1 mM dithiothreitol) and for additional 10 min at 37 °C with 2 μM of N-acetyl-Phe-tRNA^Phe. At the time of N-acetyl-Phe-tRNA^Phe addition, the reactions were supplemented with PamB2 or negamycin as specified. The translocation reaction was initiated by addition of 1 µl of EF-G–GTP mixture (1.2 µM and 3.2 mM). After 5 min of incubation at 30 °C, 2 µl of reverse transcriptase and/or dNTPs mixture was added. The reactions were stopped after another 5 min at 30 °C by addition of 200 µl of the stop buffer and subsequent phenol extraction. The obtained complementary DNA was precipitated in ethanol for subsequent gel electrophoresis.

For assay [4] the test system is unchanged. Also on record: method as in PMID 25306922. Particulars: cited from earlier work.
Assay [5] concerns E. coli ribosomes translating MLIFstop-mRNA. Description: Toeprinting assay on MLIFstop-mRNA. It is filed as biochemical. Particulars: 100 µM, positive control, toeprinting in duplicate. From the text: To investigate how paenilamicins inhibit translation, we generated PamB2-stalled ribosome complexes (PamB2-SRC) for single-particle cryo-EM analysis. Rather than forming complexes on vacant ribosomes, or with predefined functional states, we instead aimed to use more physiological complexes where translating ribosomes become stalled by PamB2. To achieve this, we performed in vitro translation reactions with E. coli ribosomes using the Met-Leu-Ile-Phe-stop-mRNA (MLIFstop-mRNA), a model template that we had previously used to successfully determine structures of drosocin-stalled ribosomal complexes. Toeprinting was used to monitor the position of ribosomes on the MLIFstop-mRNA in the presence of increasing concentrations of synthetic PamB2 (Extended Data Fig. 2). […] (Extended Data Fig. 2). […] (Extended Data Fig. 2).
Toeprinting reactions for Fig. 4b and Extended Data Fig. 2 were performed as described previously. Briefly, reactions were performed with 6 μl of PURExpress in vitro protein synthesis system (New England Biolabs). The reactions were carried out with different primers and templates (Supplementary Tables 2 and 3). The reactions contained 340 ng of the respective mRNA template and were supplemented with the different compounds as specified. The translation reactions were incubated for 30 min at 37 °C. […]

For orientation: IC50 means the point on the concentration scale where inhibition reaches its midpoint.

With `O=C(N[C@H](CO)[C@H](O)c1ccc([N+](=O)[O-])cc1)C(Cl)Cl` [chloramphenicol, reference compound], the IC50 in assay [1] was 1000 nM.

With `CC[C@H]1OC(=O)[C@H](C)[C@@H](O[C@H]2C[C@@](C)(OC)[C@@H](O)[C@H](C)O2)[C@H](C)[C@@H](O[C@@H]2O[C@H](C)C[C@H](N(C)C)[C@H]2O)[C@](C)(O)C[C@@H](C)C(=O)[C@H](C)[C@@H](O)[C@]1(C)O` [erythromycin, reference compound], the “ribosome stalling on wildtype ErmBL mRNA” value in assay [2] (50 µM) is “accumulation of ribosomes stalled with the tenth CAU codon (encoding Asp) in the P-site”. In assay [1], the IC50 was 750 nM.

For `C/C(=C\C(=O)OCCCCCCCCC(=O)O)C[C@@H]1OC[C@H](C[C@@H]2O[C@H]2[C@@H](C)[C@H](C)O)[C@@H](O)[C@H]1O` [mupirocin, reference compound], in assay [2] (Ile-tRNA synthetase inhibitor added to all reactions, concentration not given), the “ribosome trapping at twelfth codon (AUC, Ile) of ErmBL mRNA” value is recorded as “become trapped”.

`CN(CC(=O)O)NC(=O)C[C@H](N)C[C@@H](O)CN` [negamycin, reference compound]: in assay [3], the “EF-G dependent translocation (toeprint shift)” value is “little to no shift in the toeprint band”. Also, the interference with translocation result in assay [4] was “interfere with translocation”.

As to `C=C[C@]1(C)C[C@@H](OC(=O)CS[C@@H]2C[C@H]3CC[C@@H](C2)N3C)[C@]2(C)[C@H](C)CC[C@]3(CCC(=O)[C@H]32)[C@@H](C)[C@@H]1O` [retapamulin, reference compound], the “ribosome stalling on wildtype ErmBL mRNA” value in assay [2] (50 or 100 µM) is reported as “traps ribosomes on the AUG start codon”.

For the compound `CN(C)[C@@H]1C(O)=C(C(N)=O)C(=O)[C@@]2(O)C(O)=C3C(=O)c4c(O)cccc4[C@@](C)(O)[C@H]3C[C@@H]12` [tetracycline, reference compound], the IC50 in assay [1] was 10000 nM.

thiostrepton [reference compound]: in assay [5], the “ribosome stalling on MLIFstop-mRNA” value is “a single strong band is observed that corresponds to ribosomes trapped on the AUG start codon”.
